{"source": "patent US5688807A", "about": "“Method for treating 5HT2B receptor related conditions” (Eli Lilly and Company, priority 1995, dated 1997)", "key": {"[1]": {"target": "rat 5-HT2B receptor (Rattus norvegicus, UniProt P30994)", "sequence (P30994 whole entry)": "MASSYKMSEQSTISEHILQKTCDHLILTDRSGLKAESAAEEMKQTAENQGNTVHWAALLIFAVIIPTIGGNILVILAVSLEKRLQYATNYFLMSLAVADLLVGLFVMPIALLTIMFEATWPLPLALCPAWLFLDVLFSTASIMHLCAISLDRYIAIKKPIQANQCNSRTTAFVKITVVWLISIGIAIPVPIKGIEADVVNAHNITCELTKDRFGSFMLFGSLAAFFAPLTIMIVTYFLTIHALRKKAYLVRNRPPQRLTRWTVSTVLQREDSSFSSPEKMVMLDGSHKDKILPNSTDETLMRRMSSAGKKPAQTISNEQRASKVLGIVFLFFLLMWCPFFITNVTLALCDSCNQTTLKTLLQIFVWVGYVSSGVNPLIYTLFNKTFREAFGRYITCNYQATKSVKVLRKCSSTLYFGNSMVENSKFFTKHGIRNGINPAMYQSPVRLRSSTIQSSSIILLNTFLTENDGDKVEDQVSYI", "assay": "biochemical", "assay_type": "binding", "conditions": "Radioligand assay; Table III"}, "[2]": {"tested_on": "distal colon", "assay": "Functional in vitro assay: antagonism of serotonin contraction of rat distal colon longitudinal muscle", "conditions": "vs serotonin", "description": "Functional In vitro Assay:\nSprague-Dawley rats (200-250g; Laboratory Supply, Indianapolis, Ind.) were sacrificed by cervical dislocation and 8 cm segment of distal colon was removed and washed in ice cold modified Kreb's solution of the following composition (millimolar): Nacl, 118.2; Kcl, 4.6; Cacl2. H2 O, 1.6; KH2 PO4, 1.2; MgSO4, 1.2; dextrose, 10.0; and NaHCO3, 24.8. The colon was mounted on a glass rod and the longitudinal muscle layer with attached myenteric plexi was removed and mounted in organ baths, containing above described Kreb's solution maintained at 37° C. and equilibrated with 95% O2 and 5% CO2. Tissues were placed under 2 g tension and allowed to stabilize for 1 hour. Isometric contractions were recorded as changes in grams of force using grass FT03 transducers and MI^2 - computerized dynograph system. Cumulative concentration-response curves for serotonin were obtained by a stepwise increase in concentration after washing out the preceding concentration for 10-15 minutes. Each agonist concentration remained in contact with the tissue for 5 minutes. Maximum response to each concentration was determined and digitized. EC50 values were taken as the concentration of agonist that produced half maximal contraction. After control responses were obtained, tissues were incubated with an appropriate concentration of antagonist for 15 minutes. Response to serotonin were then repeated in the presence of an antagonist. Concentration-response utilized only one concentration of antagonist per tissue. Apparent antagonist dissociation constants (KB) were determined for each concentration of antagonist according to the following equation:\nKB =[B]/(dose ratio-1), where [B] is the concentration of the antagonist and dose ratio is the ED50 of the agonist in the presence of antagonist divided by the control ED50. The results were expressed as the negative logarithm of the KB (i.e., -log KB) (Br. J. Pharmacol. Methods 4:4165, (1980).\nThe functional in vitro method described supra. was used to test compounds of this invention. Values are expressed as pKi and pA2 (-log KB). The following table illustrates the results obtained when the compounds were tested using the Radioligand assay supra. (pKi) and the functional in vitro method described supra. (pA2)"}, "[3]": {"tested_on": "colon", "assay": "In vivo inhibition of serotonin-induced colonic motility in anesthetized rats", "conditions": "Rattus norvegicus, iv; anesthetized Sprague-Dawley rats", "procedure": "Sprague-Dawley Rats (250-300 g) were fasted overnight. The rats were anesthetized with urethane ([…]) delivered intraperitoneally. The abdominal cavity was opened and strain guage transducers were sewn on the antimesenteric border of the colon. The transducers were oriented to record circular muscle contractions. The animal body temperature was maintained by a heating pad. An intravenous catheter was inserted into the jugular vein for drug administration. The carotid blood pressure was also monitored. Output of the strain guage transducers was graphed on a Beckman Dynograph. Baseline motility was monitored for 30 minutes. At the end of the 30 minute period, a vehicle control dose was administered and motility was recorded for an additional 15 minutes. A serotonin dose response was developed. Successively higher doses of serotonin were administered at 15 minute intervals. An ED50 dose was calculated, which was the dose producing half maximal contraction. In antagonist experiments, historical ED50 dose was administered to validate the experimental set up. Next, a dose of antagonist was given. The motility was monitored for 15 minutes. […] Motility was evaluated by measuring the number of contractions and multiplying them by the amplitude of contractions over a set time period to provide a Motility Index. The percent inhibition was calculated from the vehicle (no antagonist) treated group. […]"}, "[4]": {"target": "T1, Human 5-HT2B (Homo sapiens, UniProt P41595)", "T1 construct": "expressed in transfected cells", "T1 sequence (P41595 whole entry)": "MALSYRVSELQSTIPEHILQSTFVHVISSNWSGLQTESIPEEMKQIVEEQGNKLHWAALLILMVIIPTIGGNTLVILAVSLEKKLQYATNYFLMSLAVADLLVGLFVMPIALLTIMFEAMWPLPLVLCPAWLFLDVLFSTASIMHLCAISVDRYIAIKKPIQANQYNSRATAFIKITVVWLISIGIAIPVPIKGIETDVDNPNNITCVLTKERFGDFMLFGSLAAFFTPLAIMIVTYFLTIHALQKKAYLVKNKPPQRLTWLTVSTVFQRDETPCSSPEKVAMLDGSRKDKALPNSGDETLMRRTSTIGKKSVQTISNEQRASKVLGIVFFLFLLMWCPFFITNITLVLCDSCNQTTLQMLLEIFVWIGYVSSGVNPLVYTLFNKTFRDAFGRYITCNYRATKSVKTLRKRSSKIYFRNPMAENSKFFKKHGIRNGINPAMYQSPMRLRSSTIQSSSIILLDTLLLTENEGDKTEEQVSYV", "assay": "[3H]Serotonin radioligand binding, human 5-HT2B;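 note: competition of tritiated serotonin binding to cell membranes, bound radioactivity on filters counted by liquid scintillation, IC50 from logistic fits converted to Ki with the Cheng-Prusoff equation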", "conditions": "Cell assays use Human Cells; read-out: Ki, 5HT2B Cells"}, "[5]": {"target": "Human 5-HT2A (Homo sapiens, UniProt P28223)", "sequence (P28223 whole entry)": "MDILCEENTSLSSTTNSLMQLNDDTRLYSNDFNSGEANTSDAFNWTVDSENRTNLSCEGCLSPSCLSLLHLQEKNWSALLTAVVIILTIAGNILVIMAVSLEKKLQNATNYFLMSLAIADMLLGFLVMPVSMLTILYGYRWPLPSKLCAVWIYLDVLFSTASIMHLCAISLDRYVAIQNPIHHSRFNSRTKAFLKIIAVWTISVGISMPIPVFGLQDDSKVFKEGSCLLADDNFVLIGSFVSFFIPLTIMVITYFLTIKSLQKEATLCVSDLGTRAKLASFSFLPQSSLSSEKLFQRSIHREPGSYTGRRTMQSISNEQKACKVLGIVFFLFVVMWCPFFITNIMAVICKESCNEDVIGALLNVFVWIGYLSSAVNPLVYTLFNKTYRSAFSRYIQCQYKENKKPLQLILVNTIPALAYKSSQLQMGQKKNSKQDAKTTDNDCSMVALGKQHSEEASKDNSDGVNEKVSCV", "assay": "[125I]DOI radioligand binding, human 5-HT2A"}, "[6]": {"target": "T2, 5HT2C (Homo sapiens, UniProt P28335)", "T2 construct": "expressed in transfected cells", "T2 sequence (P28335 33-458)": "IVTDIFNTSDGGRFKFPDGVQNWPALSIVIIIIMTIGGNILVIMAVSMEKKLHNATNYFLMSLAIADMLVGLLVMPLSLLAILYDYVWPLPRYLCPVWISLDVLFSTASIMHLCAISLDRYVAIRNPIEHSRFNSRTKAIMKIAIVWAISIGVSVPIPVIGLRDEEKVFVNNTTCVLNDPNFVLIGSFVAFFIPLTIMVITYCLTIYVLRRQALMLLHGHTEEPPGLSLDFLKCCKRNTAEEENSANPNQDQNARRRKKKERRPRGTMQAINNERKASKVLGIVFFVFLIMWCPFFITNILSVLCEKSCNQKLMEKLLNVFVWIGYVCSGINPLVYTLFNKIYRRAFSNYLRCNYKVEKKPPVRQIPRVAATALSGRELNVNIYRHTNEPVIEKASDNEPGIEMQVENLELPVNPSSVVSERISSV", "assay": "Human cell assay, 5HT2C cells", "assay_type": "binding", "conditions": "Cell assays use Human Cells", "procedure": "Compounds of this invention were tested using substantially the procedure describe in the Radioligand assay supra. and are summarized in Table I infra. The values in Table I are expressed as Ki values calculated as described supra. The blank values in Table I indicate that the compound was not tested in the corresponding assay."}}, "note": "Structures can show the parent of a compound that is named as a salt.", "data": [{"smiles": "Cc1cc(Br)c2[nH]c3c(c2c1)CCNC3", "note": "[Example 73, 6-methyl-8-bromo-1,2,3,4-tetrahydro-9H-pyrido[3,4b]-indole]", "values": [{"measurement": "pKi", "setting": "[1]", "value": 7.85}, {"measurement": "pA2 (-log KB)", "setting": "[2]", "value": 8.9}, {"measurement": "ED50", "setting": "[3]", "value": 3.2, "unit": "mg/kg"}]}, {"smiles": "Cc1ccc2[nH]c3c(c2c1)[C@@H]1CCCC[C@H]1NC3Cc1cccc2ccccc12", "note": "(stereo partly drawn) [Example 105, Trans-10-methyl-6-(1-naphthylmethyl)-2,3,4,4a,5,6,7,11c-octahydro-1H-indolo[2,3-c]quinoline, hydrochloride]", "values": [{"measurement": "Ki", "setting": "[4]", "value": 22.1, "unit": "nM"}, {"measurement": "Ki", "setting": "[5]", "value": 86.5, "unit": "nM"}, {"measurement": "Ki", "setting": "[6]", "value": 195, "unit": "nM"}]}, {"smiles": "COc1cc2c(cc1OC)CC1(CC2)N[C@@H]2CCCC[C@H]2c2c1[nH]c1ccc(C)cc21", "note": "(stereo partly drawn) [Example 107, Trans-spiro-6,6-[2-(3,4-dimethoxy)-1,2,3,4-tetrahydronaphthyl]-10-methyl-2,3,4,4a,5,6,7,11a-octahydro-1H-indolo[2,3-c]quinidine, hydrochloride]", "values": [{"measurement": "Ki", "setting": "[4]", "value": 178, "unit": "nM"}, {"measurement": "Ki", "setting": "[5]", "value": 363, "unit": "nM"}, {"measurement": "Ki", "setting": "[6]", "value": 325, "unit": "nM"}]}]}
